Test results reported in patent US10844074B2, “Heterocycle compounds and uses thereof” (ZHEJIANG JIANFENG-YIEN BIOTECHNOLOGY CO., LTD., priority 2015, dated 2020).

Target: BTK (Homo sapiens, UniProt Q06187)
Assay: BTK Enzyme Assay
Format: biochemical
Conditions: 1 uM compound; read-out: BTK (% inh @ 1 uM)
Description: The following TABLE II lists compounds representative of the invention and their activity in BTK assays. In these assays, the following grading was used: A: >30% inhibition @1 μM; B: <30% inhibition @1 μM.

Sequence of BTK (Q06187 whole entry): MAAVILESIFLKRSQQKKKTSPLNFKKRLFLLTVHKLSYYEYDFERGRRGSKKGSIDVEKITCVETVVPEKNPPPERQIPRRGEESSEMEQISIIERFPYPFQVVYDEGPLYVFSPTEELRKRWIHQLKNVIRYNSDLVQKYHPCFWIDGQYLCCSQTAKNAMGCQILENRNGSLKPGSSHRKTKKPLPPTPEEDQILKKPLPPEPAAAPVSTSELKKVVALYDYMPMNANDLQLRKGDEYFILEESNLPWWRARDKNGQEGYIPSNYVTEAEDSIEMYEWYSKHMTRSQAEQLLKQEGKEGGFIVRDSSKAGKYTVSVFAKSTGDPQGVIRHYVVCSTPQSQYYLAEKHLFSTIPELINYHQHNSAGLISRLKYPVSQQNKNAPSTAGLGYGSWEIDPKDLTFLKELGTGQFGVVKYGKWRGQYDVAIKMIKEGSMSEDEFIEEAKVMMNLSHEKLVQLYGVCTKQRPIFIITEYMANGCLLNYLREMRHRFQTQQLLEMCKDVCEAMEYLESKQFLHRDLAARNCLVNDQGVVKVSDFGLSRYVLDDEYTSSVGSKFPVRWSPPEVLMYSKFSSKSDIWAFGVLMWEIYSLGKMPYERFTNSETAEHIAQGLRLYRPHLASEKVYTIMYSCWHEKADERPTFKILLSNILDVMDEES

Compound	inhibition at 1 µM [%]
C=CC(=O)Nc1cc(NC2=NC(c3cccc(NC)c3)C3SC=CC3=N2)c(OC)cc1N1CCN(C)CC1 (centres unmarked) [Compound 7, N-[4-methoxy-5-[[4-[3-(methylamino)phenyl]-4,4a-dihydrothieno[3,2-d]pyrimidin-2-yl]amino]-2-(4-methylpiperazin-1-yl)phenyl]prop-2-enamide]	> 30
C=CC(=O)Nc1cc(NC2=NC(c3cccc(N)c3)C3SC=CC3=N2)c(OC)cc1N1CCN(C)CC1 (centres unmarked) [Compound 19, N-[5-[[4-(3-aminophenyl)-4,4a-dihydrothieno[3,2-d]pyrimidin-2-yl]amino]-4-methoxy-2-(4-methylpiperazin-1-yl)phenyl]prop-2-enamide]	< 30
C=CC(=O)Nc1cc(NC2=NC(c3cccc(OC)c3)C3C(=N2)C=CN3C)c(OC)cc1N1CCC(N(C)C)CC1 (centres unmarked) [Compound 28, N-[2-[4-(dimethylamino)-1-piperidyl]-4-methoxy-5-[[4-(3-methoxyphenyl)-5-methyl-4,4a-dihydropyrrolo[3,2-d]pyrimidin-2-yl]amino]phenyl]prop-2-enamide]	< 30
C=CC(=O)Nc1cc(Nc2nc(-c3c[nH]c4ccccc34)c3sccc3n2)c(OC)cc1N1CCOCC1 [Compound 23, N-[5-[[4-(1H-indol-3-yl)thieno[3,2-d]pyrimidin-2-yl]amino]-4-methoxy-2-morpholino-phenyl]prop-2-enamide]	> 30
C=CC(=O)Nc1cc(NC2=NC(c3cccc(N(C)C)c3)C3SC=CC3=N2)c(OC)cc1N1CCC(C(=O)N(C)C)CC1 (centres unmarked) [Compound 16, 1-[4-[[4-[3-(dimethylamino)phenyl]-4,4a-dihydrothieno[3,2-d]pyrimidin-2-yl]amino]-5-methoxy-2-(prop-2-enoylamino)phenyl]-N,N-dimethyl-piperidine-4-carboxamide]	> 30
C=CC(=O)Nc1cc(NC2=NC(c3cccc(N(C)C)c3)C3SC=CC3=N2)c(OC)cc1N(C)CCN1CCOCC1 (centres unmarked) [Compound 8, N-[5-[[4-[3-(dimethylamino)phenyl]-4,4a-dihydrothieno[3,2-d]pyrimidin-2-yl]amino]-4-methoxy-2-[methyl(2-morpholinoethyl)amino]phenyl]prop-2-enamide]	> 30
C=CC(=O)Nc1cc(NC2=NC(c3cccc(NC)c3)C3SC=CC3=N2)c(OC)cc1OCCN(C)C (centres unmarked) [Compound 13, N-[2-[2-(dimethylamino)ethoxy]-4-methoxy-5-[[4-[3-(methylamino)phenyl]-4,4a-dihydrothieno[3,2-d]pyrimidin-2-yl]amino]phenyl]prop-2-enamide]	> 30
C=CC(=O)Nc1cc(NC2=NC(c3cccc(NC)c3)C3SC=CC3=N2)c(OC)cc1N1CCC(C(=O)N(C)C)CC1 (centres unmarked) [Compound 17, 1-[5-methoxy-4-[[4-[3-(methylamino)phenyl]-4,4a-dihydrothieno[3,2-d]pyrimidin-2-yl]amino]-2-(prop-2-enoylamino)phenyl]-N,N-dimethyl-piperidine-4-carboxamide]	< 30
C=CC(=O)Nc1cc(NC2=NC(c3cccc(OC)c3)C3SC=CC3=N2)c(OC)cc1N1CCC(N(C)C)CC1 (centres unmarked) [Compound 20, N-[2-[4-(dimethylamino)-1-piperidyl]-4-methoxy-5-[[4-(3-methoxyphenyl)-4,4a-dihydrothieno[3,2-d]pyrimidin-2-yl]amino]phenyl]prop-2-enamide]	< 30
C=CC(=O)Nc1cc(NC2=NC(c3cccc(NC(C)(C)C)c3)C3SC=CC3=N2)c(OC)cc1N1CCOCC1 (centres unmarked) [Compound 11, N-[5-[[4-[3-(tert-butylamino)phenyl]-4,4a-dihydrothieno[3,2-d]pyrimidin-2-yl]amino]-4-methoxy-2-morpholino-phenyl]prop-2-enamide]	> 30
C=CC(=O)Nc1cc(Nc2nc(-c3ccn(C)c3)c3sccc3n2)c(OC)cc1N1CCN(C)CC1 [Compound 48, N-[4-methoxy-2-(4-methylpiperazin-1-yl)-5-[[4-(1-methylpyrrol-3-yl)thieno[3,2-d]pyrimidin-2-yl]amino]phenyl]prop-2-enamide]	> 30
C=CC(=O)Nc1cc(NC2=NC(c3cccc(N(C)C)c3)C3SC=CC3=N2)c(OC)cc1N(C)C (centres unmarked) [Compound 4, N-[2-(dimethylamino)-5-[[4-[3-(dimethylamino)phenyl]-4,4a-dihydrothieno[3,2-d]pyrimidin-2-yl]amino]-4-methoxy-phenyl]prop-2-enamide]	> 30
C=CC(=O)Nc1cc(Nc2nc(-c3ccc(NC(C)(C)C)cc3)c3sccc3n2)c(OC)cc1N1CCN(C)CC1 [Compound 27, N-[5-[[4-[4-(tert-butylamino)phenyl]thieno[3,2-d]pyrimidin-2-yl]amino]-4-methoxy-2-(4-methylpiperazin-1-yl)phenyl]prop-2-enamide]	> 30
C=CC(=O)Nc1cc(NC2=NC(c3cccc(N(C)C)c3)C3SC=CC3=N2)c(OC)cc1OCCN(C)C (centres unmarked) [Compound 12, N-[2-[2-(dimethylamino)ethoxy]-5-[[4-[3-(dimethylamino)phenyl]-4,4a-dihydrothieno[3,2-d]pyrimidin-2-yl]amino]-4-methoxy-phenyl]prop-2-enamide]	> 30
C=CC(=O)Nc1cc(Nc2nc(-c3c[nH]c4ccccc34)c3sccc3n2)c(OC)cc1N1CCN(C)CC1 [Compound 21, N-[5-[[4-(1H-indol-3-yl)thieno[3,2-d]pyrimidin-2-yl]amino]-4-methoxy-2-(4-methylpiperazin-1-yl)phenyl]prop-2-enamide]	> 30
C=CC(=O)Nc1cc(N(C)c2nc(-c3c[nH]c4ccccc34)c3sccc3n2)c(OC)cc1N1CCOCC1 [Compound 51, N-[5-[[4-(1H-indol-3-yl)thieno[3,2-d]pyrimidin-2-yl]-methyl-amino]-4-methoxy-2-morpholino-phenyl]prop-2-enamide]	< 30
C=CC(=O)Nc1cc(Nc2nc(-c3cccc4cc[nH]c34)c3sccc3n2)c(OC)cc1N1CCN(C)CC1 [Compound 45, N-[5-[[4-(1H-indol-7-yl)thieno[3,2-d]pyrimidin-2-yl]amino]-4-methoxy-2-(4-methylpiperazin-1-yl)phenyl]prop-2-enamide]	< 30

Further lines, results first:

inhibition at 1 µM [%]	Compound
< 30	C=CC(=O)Nc1cc(Nc2nc(-c3ccccc3NC)c3sccc3n2)c(OC)cc1N1CCN(C)CC1 [Compound 29, N-[4-methoxy-5-[[4-[2-(methylamino)phenyl]thieno[3,2-d]pyrimidin-2-yl]amino]-2-(4-methylpiperazin-1-yl)phenyl]prop-2-enamide]
< 30	C=CC(=O)Nc1cc(Nc2nc(-c3ccccc3)c3ccsc3n2)c(OC)cc1N1CCN(C)CC1 [Compound 42, N-[4-methoxy-2-(4-methylpiperazin-1-yl)-5-[(4-phenylthieno[2,3-d]pyrimidin-2-yl)amino]phenyl]prop-2-enamide]
> 30	C=CC(=O)Nc1cc(Nc2nc(-c3cn(C)c4ccccc34)c3sccc3n2)c(OC)cc1N(C)C [Compound 38, N-[2-(dimethylamino)-4-methoxy-5-[[4-(1-methylindol-3-yl)thieno[3,2-d]pyrimidin-2-yl]amino]phenyl]prop-2-enamide]
< 30	C=CC(=O)Nc1cc(N(C)c2nc(-c3cn(C)c4ccccc34)c3sccc3n2)c(OC)cc1N(C)CCN(C)C [Compound 54, N-[2-[2-(dimethylamino)ethyl-methyl-amino]-4-methoxy-5-[methyl-[4-(1-methylindol-3-yl)thieno[3,2-d]pyrimidin-2-yl]amino]phenyl]prop-2-enamide]
> 30	C=CC(=O)Nc1cc(Nc2nc(-c3ccn(C)c3)c3ccsc3n2)c(OC)cc1N1CCN(C)CC1 [Compound 46, N-[4-methoxy-2-(4-methylpiperazin-1-yl)-5-[[4-(1-methylpyrrol-3-yl)thieno[2,3-d]pyrimidin-2-yl]amino]phenyl]prop-2-enamide]
> 30	C=CC(=O)Nc1cc(Nc2nc(-c3cn(C)c4ccccc34)c3sccc3n2)c(OC)cc1N1CCN(C)CC1 [Compound 22, N-[4-methoxy-5-[[4-(1-methylindol-3-yl)thieno[3,2-d]pyrimidin-2-yl]amino]-2-(4-methylpiperazin-1-yl)phenyl]prop-2-enamide]
> 30	C=CC(=O)Nc1cc(N(C)c2nc(-c3c[nH]c4ccccc34)c3sccc3n2)c(OC)cc1N(C)CCN(C)C [Compound 53, N-[2-[2-(dimethylamino)ethyl-methyl-amino]-5-[[4-(1H-indol-3-yl)thieno[3,2-d]pyrimidin-2-yl]-methyl-amino]-4-methoxy-phenyl]prop-2-enamide]
< 30	C=CC(=O)Nc1cc(Nc2nc(-c3cccc(NC)c3)c3ccsc3n2)c(OC)cc1N(C)CCN(C)C [Compound 33, N-[2-[2-(dimethylamino)ethyl-methyl-amino]-4-methoxy-5-[[4-[3-(methylamino)phenyl]thieno[2,3-d]pyrimidin-2-yl]amino]phenyl]prop-2-enamide]
< 30	C=CC(=O)Nc1cc(Nc2nc(-c3cn(C)c4ccccc34)c3sccc3n2)c(OC)cc1OCCN1CCOCC1 [Compound 34, N-[4-methoxy-5-[[4-(1-methylindol-3-yl)thieno[3,2-d]pyrimidin-2-yl]amino]-2-(2-morpholinoethoxy)phenyl]prop-2-enamide]
> 30	C=CC(=O)Nc1cc(Nc2nc(-c3ccccc3)c3ccsc3n2)c(OC)cc1N(C)CCN(C)C [Compound 32, N-[2-[2-(dimethylamino)ethyl-methyl-amino]-4-methoxy-5-[(4-phenylthieno[2,3-d]pyrimidin-2-yl)amino]phenyl]prop-2-enamide]
> 30	C=CC(=O)Nc1cc(Nc2nc(-c3ccc(NC)cc3)c3sccc3n2)c(OC)cc1N(C)CC [Compound 39, N-[2-[ethyl(methyl)amino]-4-methoxy-5-[[4-[4-(methylamino)phenyl]thieno[3,2-d]pyrimidin-2-yl]amino]phenyl]prop-2-enamide]
< 30	C=CC(=O)Nc1cc(Nc2nc(-c3ccccc3NC)c3sccc3n2)c(OC)cc1N(C)CCN(C)C [Compound 31, N-[2-[2-(dimethylamino)ethyl-methyl-amino]-4-methoxy-5-[[4-[2-(methylamino)phenyl]thieno[3,2-d]pyrimidin-2-yl]amino]phenyl]prop-2-enamide]
